PubChem BioAssay AID254 (DTP/NCI, 2004)
Where “and” joins values, the source holds several entries; their conditions need not be identical. Equal values may be shown once. Inconclusive results and toxic doses are left out.

Test system: L1210 leukemia iv in BDF1 mice, survival T/C
Test: NCI In Vivo Anticancer Drug Screen. Data for tumor model L1210 Leukemia (intravenous) in B6D2F1 (BDF1) mice
Conditions: endpoint: mean survival time, higher = longer survival
Description: The antitumor activity of compounds was measured in mice bearing transplantable tumors. Survival or tumor size were measured and the results are expressed as the measurement made in the treated group (T) divided by the measurement made in the vehicle treated control group (C). The tumor model used in this assay is L1210 Leukemia (intravenous) in B6D2F1 (BDF1) mice

[1] = dose: 15.0 mg/kg/injection, schedule: Q01DX001 (ip), vehicle: saline

N[C@@H](Cc1ccc(N(CCCl)CCCl)cc1)C(=O)O
T/C (dose: 0.1 mg/kg/injection, schedule: Q01DX015 (ip), vehicle: carboxymethylcellulose (CMC)): 94 % of control and 103 % of control
T/C (dose: 0.2 mg/kg/injection, schedule: Q01DX015 (ip), vehicle: carboxymethylcellulose (CMC)): 107 % of control and 96 % of control
T/C (dose: 0.4 mg/kg/injection, schedule: Q01DX015 (ip), vehicle: carboxymethylcellulose (CMC)): 107 % of control and 98 % of control
T/C (dose: 0.8 mg/kg/injection, schedule: Q01DX015 (ip), vehicle: carboxymethylcellulose (CMC)): 100 % of control and 103 % of control
T/C (dose: 1.13 mg/kg/injection, schedule: Q01DX001 (ip), vehicle: carboxymethylcellulose (CMC)): 105 % of control
T/C (dose: 1.6 mg/kg/injection, schedule: Q01DX015 (ip), vehicle: carboxymethylcellulose (CMC)): 107 % of control and 101 % of control
T/C (dose: 1.7 mg/kg/injection, schedule: Q01DX001 (ip), vehicle: carboxymethylcellulose (CMC)): 95 % of control and 102 % of control
T/C (dose: 2.25 mg/kg/injection, schedule: Q01DX001 (ip), vehicle: carboxymethylcellulose (CMC)): 109 % of control and 96 % of control
T/C (dose: 3.0 mg/kg/injection, schedule: Q01DX001 (ip), vehicle: carboxymethylcellulose (CMC)): 106 % of control and 97 % of control
T/C (dose: 4.5 mg/kg/injection, schedule: Q01DX001 (ip), vehicle: carboxymethylcellulose (CMC)): 105 % of control and 113 % of control
T/C (dose: 4.75 mg/kg/injection, schedule: Q01DX001 (ip), vehicle: Klucel (hydroxypropylcellulose) (HPC)): 104 % of control and 105 % of control
T/C (dose: 7.0 mg/kg/injection, schedule: Q01DX001 (ip), vehicle: carboxymethylcellulose (CMC)): 105 % of control
T/C (dose: 9.0 mg/kg/injection, schedule: Q01DX001 (ip), vehicle: carboxymethylcellulose (CMC)): 155 % of control
T/C (dose: 14.0 mg/kg/injection, schedule: Q01DX001 (ip), vehicle: carboxymethylcellulose (CMC)): 181 % of control
T/C (dose: 14.25 mg/kg/injection, schedule: Q01DX001 (ip), vehicle: Klucel (hydroxypropylcellulose) (HPC)): 177 % of control
T/C [1]: 163 % of control and 195 % of control
T/C (dose: 18.0 mg/kg/injection, schedule: Q01DX001 (ip), vehicle: carboxymethylcellulose (CMC)): 190 % of control and 255 % of control
T/C (dose: 19.0 mg/kg/injection, schedule: Q01DX001 (ip), vehicle: Klucel (hydroxypropylcellulose) (HPC)): 214 % of control and 215 % of control
T/C (dose: 23.75 mg/kg/injection, schedule: Q01DX001 (ip), vehicle: Klucel (hydroxypropylcellulose) (HPC)): 177 % of control
T/C (dose: 29.0 mg/kg/injection, schedule: Q01DX001 (ip), vehicle: carboxymethylcellulose (CMC)): 206 % of control

O=C1N[C@@H]([C@H]2CC[C@H](Cl)CN2)C(=O)N[C@H]1[C@H]1CC[C@H](Cl)CN1
T/C (dose: 4.4 mg/kg/injection, schedule: Q01DX001 (ip), vehicle: saline): 186 % of control
T/C (dose: 6.6 mg/kg/injection, schedule: Q01DX001 (ip), vehicle: saline): 202 % of control
T/C (dose: 10.0 mg/kg/injection, schedule: Q01DX001 (ip), vehicle: saline): 227 % of control
T/C [1]: 163 % of control

CCOC(=O)C1CCC(NC(=O)N(CCCl)N=O)CC1 (stereo not drawn)
T/C (dose: 4.0 mg/kg/injection, schedule: Q01DX001 (ip), vehicle: other): 113 % of control and 100 % of control
T/C (dose: 8.0 mg/kg/injection, schedule: Q01DX001 (ip), vehicle: other): 116 % of control
T/C (dose: 8.6 mg/kg/injection, schedule: Q04DX004 (ip), vehicle: gum acacia): 274 % of control and 275 % of control
T/C (dose: 13.0 mg/kg/injection, schedule: Q04DX004 (ip), vehicle: gum acacia): 254 % of control
T/C (dose: 16.0 mg/kg/injection, schedule: Q01DX001 (ip), vehicle: other): 162 % of control and 193 % of control
T/C (dose: 20.0 mg/kg/injection, schedule: Q04DX004 (ip), vehicle: gum acacia): 837 % of control
T/C (dose: 30.0 mg/kg/injection, schedule: Q04DX004 (ip), vehicle: gum acacia): 1010 % of control
T/C (dose: 33.0 mg/kg/injection, schedule: Q01DX001 (ip), vehicle: other): 465 % of control and 302 % of control
T/C (dose: 66.0 mg/kg/injection, schedule: Q01DX001 (ip), vehicle: other): 663 % of control and 330 % of control

O=NN(CCF)C(=O)NC1CCSCC1
T/C (dose: 3.7 mg/kg/injection, schedule: Q01DX001 (ip), vehicle: other): 154 % of control
T/C (dose: 7.0 mg/kg/injection, schedule: Q01DX001 (ip), vehicle: other): 206 % of control and 227 % of control
T/C (dose: 15.0 mg/kg/injection, schedule: Q01DX001 (ip), vehicle: other): 365 % of control and 575 % of control
T/C (dose: 31.0 mg/kg/injection, schedule: Q01DX001 (ip), vehicle: other): 634 % of control and 642 % of control
T/C (dose: 62.0 mg/kg/injection, schedule: Q01DX001 (ip), vehicle: other): 515 % of control and 856 % of control
